#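 How tested: cells in 96-well plates exposed to compound for 48 hours at five concentrations. GI50 is the concentration that inhibits growth by half.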 The source made the active and inactive calls. Cut-off read from the data, not from the text of the source: active = GI50 up to about 1.1 µM and inactive = higher.
# How the values were obtained:
# Assay in all cases: inhibition of tumour cell growth, NCI panel, 48 h
# [1] = tested on: 786-0
# [2] = tested on: A498
# [3] = tested on: A549
# [4] = tested on: ACHN
# [5] = tested on: BT-549
# [6] = tested on: CAKI-1
# [7] = tested on: CCRF-CEM
# [8] = tested on: COLO 205
# [9] = tested on: DU-145
# [10] = tested on: EKVX
# [11] = tested on: HCC 2998
# [12] = tested on: HCT-116
# [13] = tested on: HCT-15
# [14] = tested on: HL-60
# [15] = tested on: HOP-62
# [16] = tested on: HOP-92
# [17] = tested on: HT-29
# [18] = tested on: Hs-578T
# [19] = tested on: IGROV-1
# [20] = tested on: K562
# [21] = tested on: KM12
# [22] = tested on: LOX IMVI
# [23] = tested on: M14
# [24] = tested on: MCF7
# [25] = tested on: MDA-MB-231
# [26] = tested on: MDA-MB-435
# [27] = tested on: MDA-N
# [28] = tested on: MOLT-4
# [29] = tested on: Malme-3M
# [30] = tested on: NCI-H226
# [31] = tested on: NCI-H23
# [32] = tested on: NCI-H460
# [33] = tested on: NCI-H522
# [34] = tested on: NCI/ADR-RES
# [35] = tested on: OVCAR-3
# [36] = tested on: OVCAR-4
# [37] = tested on: OVCAR-5
# [38] = tested on: OVCAR-8
# [39] = tested on: PC-3
# [40] = tested on: RPMI-8226
# [41] = tested on: RXF 393
# [42] = tested on: SF-268
# [43] = tested on: SF-295
# [44] = tested on: SF-539
# [45] = tested on: SK-MEL-28
# [46] = tested on: SK-MEL-2
# [47] = tested on: SK-MEL-5
# [48] = tested on: SK-OV-3
# [49] = tested on: SN12C
# [50] = tested on: SNB-19
# [51] = tested on: SR
# [52] = tested on: SW-620
# [53] = tested on: T47D
# [54] = tested on: TK-10
# [55] = tested on: U-251
# [56] = tested on: UACC-257
# [57] = tested on: UACC-62
# [58] = tested on: UO-31
# [59] = tested on: SNB-75
smiles,measurement,setting,value
CC(C)=CC(=O)c1[nH]c2ccccc2c1CC(=O)NCCc1cn(C(c2ccccc2)(c2ccccc2)c2ccccc2)cn1,GI50,[1],3.82 µM (inactive)
same,GI50,[2],4.22 µM (inactive)
same,GI50,[3],2.87 µM (inactive)
same,GI50,[4],3.54 µM (inactive)
same,GI50,[5],3.25 µM (inactive)
same,GI50,[6],7.87 µM (inactive)
same,GI50,[7],2.48 µM (inactive)
same,GI50,[8],1.81 µM (inactive)
same,GI50,[9],5.13 µM (inactive)
same,GI50,[10],3.48 µM (inactive)
same,GI50,[11],1.97 µM (inactive)
same,GI50,[12],2.77 µM (inactive)
same,GI50,[13],3.89 µM
same,GI50,[14],1.26 µM (inactive)
same,GI50,[15],11.9 µM (inactive)
same,GI50,[16],2.49 µM (inactive)
same,GI50,[17],3.32 µM (inactive)
same,GI50,[18],16.8 µM (inactive)
same,GI50,[19],3.84 µM (inactive)
same,GI50,[20],2.99 µM (inactive)
same,GI50,[21],3.29 µM (inactive)
same,GI50,[22],2.02 µM (inactive)
same,GI50,[23],2.02 µM (inactive)
same,GI50,[24],2.99 µM (inactive)
same,GI50,[25],2.16 µM (inactive)
same,GI50,[26],2.06 µM (inactive)
same,GI50,[27],2.91 µM (inactive)
same,GI50,[28],2.26 µM (inactive)
same,GI50,[29],5.78 µM (inactive)
same,GI50,[30],2.94 µM (inactive)
same,GI50,[31],4.69 µM (inactive)
same,GI50,[32],2.97 µM (inactive)
same,GI50,[33],6.71 µM (inactive)
same,GI50,[34],3.17 µM (inactive)
same,GI50,[35],3.84 µM (inactive)
same,GI50,[36],3.86 µM (inactive)
same,GI50,[37],3.39 µM (inactive)
same,GI50,[38],3.96 µM (inactive)
same,GI50,[39],2.46 µM (inactive)
same,GI50,[40],1.98 µM (inactive)
same,GI50,[41],2.81 µM (inactive)
same,GI50,[42],16.8 µM (inactive)
same,GI50,[43],4.57 µM (inactive)
same,GI50,[44],2.69 µM (inactive)
same,GI50,[45],3.4 µM (inactive)
same,GI50,[46],1.81 µM (inactive)
same,GI50,[47],2.08 µM (inactive)
same,GI50,[48],13.5 µM (inactive)
same,GI50,[49],2.81 µM (inactive)
same,GI50,[50],6.05 µM (inactive)
same,GI50,[51],0.979 µM (active)
same,GI50,[52],3.74 µM (inactive)
same,GI50,[53],3.77 µM (inactive)
same,GI50,[54],6.76 µM (inactive)
same,GI50,[55],2.82 µM (inactive)
same,GI50,[56],3.67 µM (inactive)
same,GI50,[57],1.97 µM (inactive)
same,GI50,[58],3.55 µM (inactive)
O/N=C\c1cc(O)c(O)c(/C=N/O)c1,GI50,[2],69.3 µM (inactive)
same,GI50,[3],25.2 µM (inactive)
same,GI50,[4],24.2 µM (inactive)
same,GI50,[5],79.1 µM (inactive)
same,GI50,[6],28.6 µM (inactive)
same,GI50,[7],7.66 µM (inactive)
same,GI50,[8],34.4 µM (inactive)
same,GI50,[9],31.6 µM (inactive)
same,GI50,[10],34.8 µM (inactive)
same,GI50,[12],33.8 µM (inactive)
same,GI50,[13],34.9 µM
same,GI50,[14],14.1 µM (inactive)
same,GI50,[15],29.4 µM (inactive)
same,GI50,[16],49.9 µM (inactive)
same,GI50,[17],59.3 µM (inactive)
same,GI50,[18],23.9 µM (inactive)
same,GI50,[19],41.4 µM (inactive)
same,GI50,[20],36 µM (inactive)
same,GI50,[21],38.4 µM (inactive)
same,GI50,[22],47.8 µM (inactive)
same,GI50,[23],27.5 µM (inactive)
same,GI50,[24],35.5 µM (inactive)
same,GI50,[25],56.5 µM (inactive)
same,GI50,[26],38.8 µM (inactive)
same,GI50,[27],47.9 µM (inactive)
same,GI50,[28],21.4 µM (inactive)
same,GI50,[29],> 100 µM (inactive)
same,GI50,[30],32.9 µM (inactive)
same,GI50,[31],71 µM (inactive)
same,GI50,[32],27.9 µM (inactive)
same,GI50,[33],8.73 µM (inactive)
same,GI50,[34],32 µM (inactive)
same,GI50,[35],20.6 µM (inactive)
same,GI50,[36],52 µM (inactive)
same,GI50,[37],96.2 µM (inactive)
same,GI50,[38],29 µM (inactive)
same,GI50,[39],33.3 µM (inactive)
same,GI50,[40],11.8 µM (inactive)
same,GI50,[41],25.6 µM (inactive)
same,GI50,[42],15.2 µM (inactive)
same,GI50,[43],55.1 µM (inactive)
same,GI50,[44],34.4 µM (inactive)
same,GI50,[45],> 100 µM (inactive)
same,GI50,[46],67.9 µM (inactive)
same,GI50,[47],33.2 µM (inactive)
same,GI50,[48],33.7 µM (inactive)
same,GI50,[49],27.2 µM (inactive)
same,GI50,[50],89.5 µM (inactive)
same,GI50,[59],> 100 µM (inactive)
same,GI50,[51],11 µM (inactive)
same,GI50,[52],39.9 µM (inactive)
same,GI50,[53],36.1 µM (inactive)
same,GI50,[54],63.4 µM (inactive)
same,GI50,[55],39 µM (inactive)
same,GI50,[56],> 100 µM (inactive)
same,GI50,[57],38.5 µM (inactive)
same,GI50,[58],16 µM (inactive)
O=C1/C(=C\Oc2ccc(F)cc2)N2CCC1CC2,GI50,[1],> 100 µM (inactive)
same,GI50,[2],> 100 µM (inactive)
same,GI50,[3],> 100 µM (inactive)
same,GI50,[4],76.2 µM (inactive)
same,GI50,[5],55 µM (inactive)
same,GI50,[6],84.9 µM (inactive)
same,GI50,[7],34.4 µM (inactive)
same,GI50,[8],> 100 µM (inactive)
same,GI50,[9],0.544 µM (active)
same,GI50,[10],55.5 µM (inactive)
same,GI50,[12],34.8 µM (inactive)
same,GI50,[13],70.6 µM
same,GI50,[14],35.2 µM (inactive)
same,GI50,[15],> 100 µM (inactive)
same,GI50,[16],41.4 µM (inactive)
same,GI50,[17],60.1 µM (inactive)
same,GI50,[18],28.7 µM (inactive)
same,GI50,[19],88.3 µM (inactive)
same,GI50,[20],32.7 µM (inactive)
same,GI50,[22],25.7 µM (inactive)
same,GI50,[23],> 100 µM (inactive)
same,GI50,[24],49 µM (inactive)
same,GI50,[25],80.5 µM (inactive)
same,GI50,[26],40.5 µM (inactive)
same,GI50,[27],47.2 µM (inactive)
same,GI50,[28],34.1 µM (inactive)
same,GI50,[29],33.3 µM (inactive)
same,GI50,[30],35.5 µM (inactive)
same,GI50,[31],54.5 µM (inactive)
same,GI50,[33],50.8 µM (inactive)
same,GI50,[34],46.2 µM (inactive)
same,GI50,[35],> 100 µM (inactive)
same,GI50,[36],46.8 µM (inactive)
same,GI50,[37],> 100 µM (inactive)
same,GI50,[38],85.1 µM (inactive)
same,GI50,[39],> 100 µM (inactive)
same,GI50,[40],52.1 µM (inactive)
same,GI50,[41],25.1 µM (inactive)
same,GI50,[42],89.5 µM (inactive)
same,GI50,[43],> 100 µM (inactive)
same,GI50,[44],> 100 µM (inactive)
same,GI50,[45],87.1 µM (inactive)
same,GI50,[46],61.2 µM (inactive)
same,GI50,[47],63.5 µM (inactive)
same,GI50,[48],> 100 µM (inactive)
same,GI50,[49],94.6 µM (inactive)
same,GI50,[50],56.6 µM (inactive)
same,GI50,[59],24.8 µM (inactive)
same,GI50,[51],16.4 µM (inactive)
same,GI50,[53],54.6 µM (inactive)
same,GI50,[54],55.3 µM (inactive)
same,GI50,[55],77.1 µM (inactive)
same,GI50,[56],23.7 µM (inactive)
same,GI50,[57],25.9 µM (inactive)
same,GI50,[58],45.1 µM (inactive)

# — ChEMBL document CHEMBL1201862, “PubChem BioAssay data set” (2004)
